# Target: T1, IP receptor (Homo sapiens, UniProt P43119)
# T1 construct: expressed in transfected cells; host or cells: CHO cells stably expressing the IP receptor (CHO-IP)
# Assay: cAMP accumulation in CHO cells stably expressing the IP receptor (CHO-IP), Perkin Elmer AlphaScreen assay
# Assay type: cell-based
# Details: agonist activity, 1 hour at room temperature
# Experimental: Activity of compounds at the IP receptor (IP receptor) is assessed by measuring cAMP accumulation in CHO cells stably expressing the IP receptor (CHO-IP) using the Perkin Elmer AlphaScreen assay. This technology measures the endogenous production of cAMP, in a non-radioactive luminescence proximity homogenous assay. A biological reaction occurs between streptavidin coated donor beads, biotinylated cAMP and anti-cAMP acceptor beads, bringing the donor and acceptor beads close enough together so that upon excitation a fluorescence signal is produced. On production of endogenous cAMP, competition between the biotinylated cAMP and cellular-derived cAMP causes a reduction in the fluorescent signal. The reduction in signal is proportional to the amount of cAMP being produced, thus it is possible to quantify the amount of cAMP being produced on stimulation with agonist.
# Test and reference compounds are prepared at 100× [final] in 100% DMSO, and diluted 1:3 using a Biomek Fx (Beckman Coulter). This is followed by an intermediate dilution to give 5× [final] in assay buffer (HBSS containing 5 mM HEPES, 0.1% (w/v) BSA). 5 μL of 5× [final] test compounds, reference compounds and buffer/DMSO control are then transferred to a 384-well white OptiPlate, containing 20 μL CHO-IP cell suspension (15,000 cells/well, prepared from frozen), and plate is incubated at room temperature for 1 hour. A cAMP standard curve is constructed for each experiment (concentration range of 10000 nM to 0.001 nM, in assay buffer) and 25 μL of each concentration added to the last two columns of the assay plate. The incubation is terminated by the addition of lysis buffer (dH2O; 0.3% (v v^−1) Tween-20) containing 20 units mL^−1 streptavidin coated donor beads and biotinylated cAMP (pre-incubated for 30 minutes) and 20 units mL^−1 anti-cAMP acceptor beads, which are added to the lysis buffer just before addition to the assay plate. The assay plate is then incubated at room temperature in the dark, for 60 minutes with gentle shaking, and read on the Envision plate reader (Perkin Elmer).
# The raw data of the reference compounds, test compounds and controls are converted into cAMP concentrations, using the cAMP standard curve, in Graph Pad Prism (Graph Pad Software Inc). EC50 as well as maximal values of the agonist curves are determined using a 4-parameter logistic equation. The % maximum response values of all test compounds are determined using the top of the treprostinil concentration-response curve.
# T1 sequence (P43119 whole entry): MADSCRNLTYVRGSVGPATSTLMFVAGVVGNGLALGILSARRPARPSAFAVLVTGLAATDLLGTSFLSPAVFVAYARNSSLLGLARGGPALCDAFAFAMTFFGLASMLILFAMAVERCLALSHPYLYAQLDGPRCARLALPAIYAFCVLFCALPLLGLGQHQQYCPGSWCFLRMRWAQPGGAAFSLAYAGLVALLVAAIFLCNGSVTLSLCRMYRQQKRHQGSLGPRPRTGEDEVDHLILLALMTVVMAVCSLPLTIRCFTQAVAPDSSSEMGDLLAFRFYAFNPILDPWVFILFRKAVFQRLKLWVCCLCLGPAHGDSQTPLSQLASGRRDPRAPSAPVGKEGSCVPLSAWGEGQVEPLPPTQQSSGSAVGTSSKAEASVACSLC
row,EC50 [nM],SMILES
1,0.8,"COC1CCN(CCCCCCC(=O)O)c2nc(-c3ccc(C)cc3)c(-c3ccc(C)cc3)nc21 (racemic) [Example 3.1, rac-7-(8-Methoxy-2,3-di-p-tolyl-7,8-dihydropyrido[2,3-b]pyrazin-5(6H)-yl)heptanoic acid]"
2,0.3,"COC1(C)CCN(CCCCCCC(=O)O)c2nc(-c3ccc(C)cc3)c(-c3ccc(C)cc3)nc21 (racemic) [Example 15, rac-7-(8-Methoxy-8-methyl-2,3-di-p-tolyl-7,8-dihydropyrido[2,3-b]pyrazin-5(6H)-yl)heptanoic acid]"
3,1.8,"Cc1ccc(-c2nc3c(nc2-c2ccc(C)cc2)N(CCCCC(O)CC(=O)O)CCC3)cc1 (racemic) [Example 17, rac-7-(2,3-Di-p-tolyl-7,8-dihydropyrido[2,3-b]pyrazin-5(6H)-yl)-3-hydroxyheptanoic acid]"
4,0.3,"Cc1ccc(-c2nc3c(nc2-c2ccc(C)cc2)N(CCCCCCC(=O)O)C(=O)C(C(C)(C)O)C3)cc1 (single isomer, unassigned) [1.1(i), (R)-7-(7-(2-hydroxypropan-2-yl)-6-oxo-2,3-di-p-tolyl-7,8-dihydropyrido[2,3-b]pyrazin-5(6H)-yl)heptanoic acid or (S)-7-(7-(2-hydroxypropan-2-yl)-6-oxo-2,3-di-p-tolyl-7,8-dihydropyrido[2,3-b]pyrazin-5(6H)-yl)heptanoic acid]"
5,0.6,"Cc1ccc(-c2nc3c(nc2-c2ccc(C)cc2)N(CCCCCCC(=O)O)C(=O)C(C(C)(C)O)C3)cc1 (single isomer, unassigned) [1.1(ii), (R)-7-(7-(2-hydroxypropan-2-yl)-6-oxo-2,3-di-p-tolyl-7,8-dihydropyrido[2,3-b]pyrazin-5(6H)-yl)heptanoic acid or (S)-7-(7-(2-hydroxypropan-2-yl)-6-oxo-2,3-di-p-tolyl-7,8-dihydropyrido[2,3-b]pyrazin-5(6H)-yl)heptanoic acid]"
6,4.8,"CCC1CCc2nc(-c3ccc(C)cc3)c(-c3ccc(C)cc3)nc2N1CCCCCCC(=O)O (single isomer, unassigned) [2.3(i), (R)-7-(6-Ethyl-2,3-di-p-tolyl-7,8-dihydropyrido[2,3-b]pyrazin-5(6H)-yl)heptanoic acid or (S)-7-(6-Ethyl-2,3-di-p-tolyl-7,8-dihydropyrido[2,3-b]pyrazin-5(6H)-yl)heptanoic acid]"
7,0.3,"CCC1CCc2nc(-c3ccc(C)cc3)c(-c3ccc(C)cc3)nc2N1CCCCCCC(=O)O (single isomer, unassigned) [2.3(ii), (R)-7-(6-Ethyl-2,3-di-p-tolyl-7,8-dihydropyrido[2,3-b]pyrazin-5(6H)-yl)heptanoic acid or (S)-7-(6-Ethyl-2,3-di-p-tolyl-7,8-dihydropyrido[2,3-b]pyrazin-5(6H)-yl)heptanoic acid]"
8,12.7,"Cc1ccc(-c2nc3c(nc2-c2ccc(C)cc2)N(CCCCCCC(=O)O)CC(C(C)(C)O)C3)cc1 (single isomer, unassigned) [9.2(i), (R)-7-(7-(2-hydroxypropan-2-yl)-2,3-di-p-tolyl-7,8-dihydropyrido[2,3-b]pyrazin-5(6H)-yl)heptanoic acid or (S)-7-(7-(2-hydroxypropan-2-yl)-2,3-di-p-tolyl-7,8-dihydropyrido[2,3-b]pyrazin-5(6H)-yl)heptanoic acid]"
9,0.3,"Cc1ccc(-c2nc3c(nc2-c2ccc(C)cc2)N(CCCCCCC(=O)O)C(=O)C(O)C3)cc1 (single isomer, unassigned) [11(i), (R)-7-(7-hydroxy-6-oxo-2,3-di-p-tolyl-7,8-dihydropyrido[2,3-b]pyrazin-5(6H)-yl) heptanoic acid or (S)-7-(7-hydroxy-6-oxo-2,3-di-p-tolyl-7,8-dihydropyrido[2,3-b]pyrazin-5(6H)-yl) heptanoic acid]"
10,0.5,"Cc1ccc(-c2nc3c(nc2-c2ccc(C)cc2)N(CCCCCCC(=O)O)C(=O)C(O)C3)cc1 (single isomer, unassigned) [11(ii), (R)-7-(7-hydroxy-6-oxo-2,3-di-p-tolyl-7,8-dihydropyrido[2,3-b]pyrazin-5(6H)-yl) heptanoic acid or (S)-7-(7-hydroxy-6-oxo-2,3-di-p-tolyl-7,8-dihydropyrido[2,3-b]pyrazin-5(6H)-yl) heptanoic acid]"
11,0.3,"Cc1ccc(-c2nc3c(nc2-c2ccc(C)cc2)N(CCCCCCC(=O)O)C(=O)C(C(C)(C)O)C3)cc1 (single isomer, unassigned) [Example 1.1, rac-7-(7-(2-Hydroxypropan-2-yl)-6-oxo-2,3-di-p-tolyl-7,8-dihydropyrido[2,3-b]pyrazin-5(6H)-yl)heptanoic acid]"
12,13.6,"CO[C@@H]1CCN(CCCCCCC(=O)O)c2nc(-c3ccc(C)cc3)c(-c3ccc(C)cc3)nc21 (single isomer, unassigned) [Example 3.2, (R)-7-(8-methoxy-2,3-di-p-tolyl-7,8-dihydropyrido[2,3-b]pyrazin-5(6H)-yl)heptanoic acid or (S)-7-(8-methoxy-2,3-di-p-tolyl-7,8-dihydropyrido[2,3-b]pyrazin-5(6H)-yl)heptanoic acid]"
13,2.3,"CO[C@@H]1CCN(CCCCCCC(=O)O)c2nc(-c3ccc(C)cc3)c(-c3ccc(C)cc3)nc21 (single isomer, unassigned) [Example 3.3, (R)-7-(8-methoxy-2,3-di-p-tolyl-7,8-dihydropyrido[2,3-b]pyrazin-5(6H)-yl)heptanoic acid or (S)-7-(8-methoxy-2,3-di-p-tolyl-7,8-dihydropyrido[2,3-b]pyrazin-5(6H)-yl)heptanoic acid]"
14,28.6,"Cc1ccc(-c2nc3c(nc2-c2ccc(C)cc2)N(CCCCCCC(=O)NS(C)(=O)=O)CCC3O)cc1 (single isomer, unassigned) [Example 13.1, (R or S)-7-(8-Hydroxy-2,3-di-p-tolyl-7,8-dihydropyrido[3,2-b]pyrazin-5(6H)-yl)-N-(methylsulfonyl)heptanamide]"
15,510,"Cc1ccc(-c2nc3c(nc2-c2ccc(C)cc2)N(CCCCCCC(=O)NS(=O)(=O)Cc2ccccc2)CCC3O)cc1 (single isomer, unassigned) [Example 13.2, (R)—N-(benzylsulfonyl)-7-(8-hydroxy-2,3-di-p-tolyl-7,8-dihydropyrido[3,2-b]pyrazin-5(6H)-yl)heptanamide or (S)—N-(benzylsulfonyl)-7-(8-hydroxy-2,3-di-p-tolyl-7,8-dihydropyrido[3,2-b]pyrazin-5(6H)-yl)heptanamide]"
16,66.2,"Cc1ccc(-c2nc3c(nc2-c2ccc(C)cc2)N(CCCCCCC(=O)NS(=O)(=O)Cc2ccccc2)CCC3O)cc1 (single isomer, unassigned) [Example 13.3, (R)—N-(benzylsulfonyl)-7-(8-hydroxy-2,3-di-p-tolyl-7,8-dihydropyrido[3,2-b]pyrazin-5(6H)-yl)heptanamide or (S)—N-(benzylsulfonyl)-7-(8-hydroxy-2,3-di-p-tolyl-7,8-dihydropyrido[3,2-b]pyrazin-5(6H)-yl)heptanamide]"
17,1.1,"COC1(C)CCN(CCCCCCC(=O)O)c2nc(-c3ccc(C)cc3)c(-c3ccc(C)cc3)nc21 (single isomer, unassigned) [Example 15a, (R)-7-(8-Methoxy-8-methyl-2,3-di-p-tolyl-7,8-dihydropyrido[2,3-b]pyrazin-5(6H)-yl)heptanoic acid or (S)-7-(8-Methoxy-8-methyl-2,3-di-p-tolyl-7,8-dihydropyrido[2,3-b]pyrazin-5(6H)-yl)heptanoic acid]"
18,3.6,"COC1(C)CCN(CCCCCCC(=O)O)c2nc(-c3ccc(C)cc3)c(-c3ccc(C)cc3)nc21 (single isomer, unassigned) [Example 15b, (R)-7-(8-Methoxy-8-methyl-2,3-di-p-tolyl-7,8-dihydropyrido[2,3-b]pyrazin-5(6H)-yl)heptanoic acid or (S)-7-(8-Methoxy-8-methyl-2,3-di-p-tolyl-7,8-dihydropyrido[2,3-b]pyrazin-5(6H)-yl)heptanoic acid]"
19,3.6,"Cc1ccc(-c2nc3c(nc2-c2ccc(C)cc2)N(CCCC[C@@H](O)CC(=O)O)CCC3)cc1 (single isomer, unassigned) [Example 17a, (R)-7-(2,3-Di-p-tolyl-7,8-dihydropyrido[2,3-b]pyrazin-5(6H)-yl)-3-hydroxyheptanoic acid or (S)-7-(2,3-Di-p-tolyl-7,8-dihydropyrido[2,3-b]pyrazin-5(6H)-yl)-3-hydroxyheptanoic acid]"

# Source: patent US9115129B2, “Substituted pyrido[2,3-B]pyrazines as IP receptor agonists” (Novartis AG, priority 2012, dated 2015)
